Assay results taken from patent US20240279214A1, “ALPHA4 BETA7 INEGRIN ANTAGONISTS AND USES THEREOF” (XinThera, Inc., priority 2022, published 2024).
Like-named read-outs stand apart in the source and are kept apart here.

Conditions: 13-membered ring

Molecule `CCOC(=O)C[C@@H]1NC(=O)C(n2cc(CCN3CC(F)C3)c(C(F)(F)F)cc2=O)c2cc(ccc2F)Oc2ccc(F)c(C)c2-c2cc(C)c(F)c1c2` (stereo in doubt) has a ring closure, isolated yield (from CCOC(=O)C[C@H](NC(=O)C(c1cc(Br)ccc1F)n1cc(CCN2CC(F)C2)c(C(F)(F)F)cc1=O)c1cc(-c2c(O)ccc(F)c2C)cc(C)c1F, ether bond, CuI/K2CO3/(1R,2R)-N1,N2-dimethylcyclohexane-1,2-diamine, dioxane, 34.0 mM, 100.0 °C, 16.0 h) of 55.2%.

Molecule `CCOC(=O)C[C@@H]1NC(=O)C(n2cc(CCN3CC(F)C3)c(C(F)(F)F)cc2=O)c2cccc(c2)Oc2cccc(C)c2-c2cc(C)c(F)c1c2` (stereo in doubt) has a ring closure, isolated yield (from CCOC(=O)C[C@H](NC(=O)C(c1cccc(Br)c1)n1cc(CCN2CC(F)C2)c(C(F)(F)F)cc1=O)c1cc(-c2c(C)cccc2O)cc(C)c1F, ether bond, CuI/K2CO3, dioxane, 42.0 mM, 100.0 °C, 16.0 h) of 33.4%.

With `CCOC(=O)C[C@@H]1NC(=O)C(n2cc(CCOC)c(C(F)(F)F)cc2=O)c2cc(ccc2F)Oc2cccc(C)c2-c2cc(C)c(F)c1c2` (stereo partly drawn) the ring closure, isolated yield (from CCOC(=O)C[C@H](NC(=O)C(c1cc(Br)ccc1F)n1cc(CCOC)c(C(F)(F)F)cc1=O)c1cc(-c2c(C)cccc2O)cc(C)c1F, ether bond, CuI/K2CO3/(1R,2S)-N1,N2-dimethylcyclohexane-1,2-diamine, dioxane, 65.0 mM, 100.0 °C) was 27.9%.

Molecule `CCOC(=O)C[C@@H]1NC(=O)C(n2cc(CCN3CC(F)C3)c(C(F)(F)F)cc2=O)c2cc(ccc2F)Oc2nn(C)cc2-c2cc(C)c(F)c1c2` (stereo partly drawn) has a ring closure, isolated yield (from CCOC(=O)C[C@H](N)c1cc(-c2cn(C)nc2Oc2ccc(F)c(C(C(=O)O)n3cc(CCN4CC(F)C4)c(C(F)(F)F)cc3=O)c2)cc(C)c1F, amide bond, EDCI/HOBt/DIEA, MeCN, 32.6 mM, 60.0 °C, 6.0 h) of 29.9%.

For `CCOC(=O)C[C@@H]1NC(=O)C(n2cc(CCN3CC(F)C3)c(C(F)(F)F)cc2=O)c2cc(ccc2F)Oc2cccc(C)c2-c2cc(C(F)F)c(F)c1c2` (stereo in doubt), the ring closure, isolated yield (from CCOC(=O)C[C@H](NC(=O)C(c1cc(Br)ccc1F)n1cc(CCN2CC(F)C2)c(C(F)(F)F)cc1=O)c1cc(-c2c(C)cccc2O)cc(C(F)F)c1F, ether bond, CuI/(1R,2R)-N1,N2-dimethylcyclohexane-1,2-diamine/K2CO3, 1,4-dioxane, 17.3 mM, 100.0 °C, 16.0 h) was 50.2%.

`CCOC(=O)C[C@@H]1NC(=O)C(n2ccc(C(F)(F)F)c(OC)c2=O)c2cc(ccc2F)Oc2cccc(C)c2-c2cc(C)c(F)c1c2` (stereo partly drawn) gave a ring closure, isolated yield (from CCOC(=O)C[C@H](NC(=O)C(c1cc(Br)ccc1F)n1ccc(C(F)(F)F)c(OC)c1=O)c1cc(-c2c(C)cccc2O)cc(C)c1F, ether bond, CuI/(1S,2S)-N,N'-dimethylcyclohexane-1,2-diamine/K2CO3, 1,4-dioxane, 13.5 mM, 100.0 °C) of 67.3%.

`CCOC(=O)C[C@@H]1NC(=O)C(n2cc(CCN3CC(F)C3)c(C(F)(F)F)cc2=O)c2cc(ccc2F)Oc2cc(N3C4CCC3COC4)cc(C)c2-c2cc(C)c(F)c1c2` (stereo partly drawn) gave a ring closure, isolated yield (from CCOC(=O)C[C@H](NC(=O)C(c1cc(Br)ccc1F)n1cc(CCN2CC(F)C2)c(C(F)(F)F)cc1=O)c1cc(-c2c(C)cc(N3C4CCC3COC4)cc2O)cc(C)c1F, ether bond, CuI/(1R,2R)-N1,N2-dimethylcyclohexane-1,2-diamine/K2CO3, dioxane, 27.5 mM, 100.0 °C, 16.0 h) of 54.8%.

Work on `CCOC(=O)C[C@@H]1NC(=O)C(n2cc(CCN(C)C)c(C(F)(F)F)cc2=O)c2cc(ccc2F)Oc2cccc(C)c2-c2cc(C)c(F)c1c2` (stereo in doubt) yielded a ring closure, isolated yield (from CCOC(=O)C[C@H](NC(=O)C(c1cc(Br)ccc1F)n1cc(CCN(C)C)c(C(F)(F)F)cc1=O)c1cc(-c2c(C)cccc2O)cc(C)c1F, ether bond, CuI/K2CO3/(1R,2R)-N1,N2-dimethylcyclohexane-1,2-diamine, 1,4-dioxane, 56.0 mM, 100.0 °C, 16.0 h) of 70%.

For `CCOC(=O)C[C@@H]1NC(=O)C(n2cc(CCN3CC(F)C3)c(C(F)(F)F)cc2=O)c2cccc(c2)Oc2cccc(C)c2-c2cc(C3CC3)c(F)c1c2` (stereo partly drawn), the ring closure, isolated yield (from CCOC(=O)C[C@H](NC(=O)C(c1cccc(Br)c1)n1cc(CCN2CC(F)C2)c(C(F)(F)F)cc1=O)c1cc(-c2c(C)cccc2O)cc(C2CC2)c1F, ether bond, CuI/(1R,2R)-N1,N2-dimethylcyclohexane-1,2-diamine/K2CO3, dioxane, 26.1 mM, 100.0 °C, 16.0 h) was 82.3%.

For `CCOC(=O)C[C@@H]1NC(=O)C(n2ccc(C(F)(F)F)cc2=O)c2cc(ccc2F)Oc2cc(OC)cc(C)c2-c2cc(C)c(F)c1c2` (stereo partly drawn), the ring closure, isolated yield (from CCOC(=O)C[C@H](NC(=O)C(c1cc(Br)ccc1F)n1ccc(C(F)(F)F)cc1=O)c1cc(-c2c(C)cc(OC)cc2O)cc(C)c1F, ether bond, CuI/K2CO3/(1R,2R)-N1,N2-dimethylcyclohexane-1,2-diamine, 1,4-dioxane, 70.0 mM, 100.0 °C, 2.0 h) was 67.3%.

`CCOC(=O)C[C@@H]1NC(=O)C(=O)c2cccc(c2)Cc2cccc(C)c2-c2cc(C)c(F)c1c2` showed a ring closure, isolated yield (from CCOC(=O)C[C@H](N)c1cc(-c2c(C)cccc2Cc2cccc(C(=O)C(=O)O)c2)cc(C)c1F, amide bond, TCFH/NMI, MeCN, 139.3 mM, 25.0 °C, 3.0 h) of 32.5%.

Work on `CCOC(=O)C[C@@H]1NC(=O)C(n2cc(CCN3CC(F)C3)c(C(F)(F)F)cc2=O)c2cc(ccc2F)Oc2cccc(C)c2-c2cc1c(C)s2` (stereo partly drawn) yielded a ring closure, isolated yield (from CCOC(=O)C[C@H](NC(=O)C(c1cc(Br)ccc1F)n1cc(CCN2CC(F)C2)c(C(F)(F)F)cc1=O)c1cc(-c2c(C)cccc2O)sc1C, ether bond, CuI/K2CO3/(1R,2R)-N1,N2-dimethylcyclohexane-1,2-diamine, dioxane, 26.0 mM, 100.0 °C) of 55.7%.

Molecule `CCOC(=O)C[C@@H]1NC(=O)C(n2ccc(C(F)(F)F)cc2=O)c2cc(ccc2F)Oc2cccc(C)c2-c2cc(C)c(F)c1c2` (stereo partly drawn) has a ring closure, isolated yield (from CCOC(=O)C[C@H](NC(=O)C(c1cc(Br)ccc1F)n1ccc(C(F)(F)F)cc1=O)c1cc(-c2c(C)cccc2O)cc(C)c1F, ether bond, CuI/(1R,2R)-N1,N2-dimethylcyclohexane-1,2-diamine/K2CO3, 1,4-dioxane, 40.0 mM, 100.0 °C, 16.0 h) of 88.7%.

Work on `CCOC(=O)C[C@@H]1NC(=O)C(n2cc(CCN3CC(F)C3)c(C(F)(F)F)cc2=O)c2cc(ccc2F)Oc2cc(N3CC(OC)C3)cc(C)c2-c2cc(C)c(F)c1c2` (stereo partly drawn) yielded a ring closure, isolated yield (from CCOC(=O)C[C@H](NC(=O)C(c1cc(Br)ccc1F)n1cc(CCN2CC(F)C2)c(C(F)(F)F)cc1=O)c1cc(-c2c(C)cc(N3CC(OC)C3)cc2O)cc(C)c1F, ether bond, CuI/(1R,2R)-N1,N2-dimethylcyclohexane-1,2-diamine/K2CO3, 1,4-dioxane, 30.0 mM, 100.0 °C, 2.0 h) of 59.2%.

`CCOC(=O)C[C@@H]1NC(=O)C(n2cc(CCN3CC(F)C3)c(C(F)(F)F)cc2=O)c2cccc(c2)Oc2cccc(C(F)(F)F)c2-c2cc1c(F)c(C(F)(F)F)c2` (stereo partly drawn) showed a ring closure, isolated yield (from CCOC(=O)C[C@H](NC(=O)C(c1cccc(Br)c1)n1cc(CCN2CC(F)C2)c(C(F)(F)F)cc1=O)c1cc(-c2c(O)cccc2C(F)(F)F)cc(C(F)(F)F)c1F, ether bond, CuI/N1,N2-dimethylcyclohexane-1,2-diamine/K2CO3, dioxane, 14.7 mM, 100.0 °C, 16.0 h) of 46.7%.

Molecule `CCOC(=O)C[C@@H]1NC(=O)C(n2cc(CCN3CC(F)C3)c(C(F)(F)F)cc2=O)c2cccc(c2)Oc2cc(C)cc(C)c2-c2cc1c(F)c(C(F)(F)F)c2` (stereo partly drawn) has a ring closure, isolated yield (from CCOC(=O)C[C@H](NC(=O)C(c1cccc(Br)c1)n1cc(CCN2CC(F)C2)c(C(F)(F)F)cc1=O)c1cc(-c2c(C)cc(C)cc2O)cc(C(F)(F)F)c1F, ether bond, CuI/(1R,2R)-N1,N2-dimethylcyclohexane-1,2-diamine/K2CO3, dioxane, 28.3 mM, 100.0 °C, 16.0 h) of 66.2%.

For `CCOC(=O)C[C@@H]1NC(=O)C(n2cc(CCN(C)C)c(C(F)(F)F)cc2=O)c2cccc(c2)Oc2cccc(C)c2-c2cc(C)c(F)c1c2` (stereo in doubt), the ring closure, isolated yield (from CCOC(=O)C[C@H](NC(=O)C(c1cccc(Br)c1)n1cc(CCN(C)C)c(C(F)(F)F)cc1=O)c1cc(-c2c(C)cccc2O)cc(C)c1F, ether bond, CuI/K2CO3/(1R,2R)-N1,N2-dimethylcyclohexane-1,2-diamine, 1,4-dioxane, 66.7 mM, 100.0 °C, 16.0 h) was 61.3%.

Work on `CCOC(=O)C[C@@H]1NC(=O)C(n2cc(CCN3CC(F)C3)c(C(F)(F)F)cc2=O)c2cc(ccc2F)Oc2cc(C(F)(F)F)cc(C)c2-c2cc(C)c(F)c1c2` (stereo partly drawn) yielded a ring closure, isolated yield (from CCOC(=O)C[C@H](NC(=O)C(c1cc(Br)ccc1F)n1cc(CCN2CC(F)C2)c(C(F)(F)F)cc1=O)c1cc(-c2c(C)cc(C(F)(F)F)cc2O)cc(C)c1F, ether bond, CuI/K2CO3/(1R,2R)-N1,N2-dimethylcyclohexane-1,2-diamine, 1,4-dioxane, 30.0 mM, 100.0 °C, 16.0 h) of 55%.

Molecule `CCOC(=O)C[C@H](NC(=O)C(c1cccc(Br)c1)n1cc(Cl)c(C(F)(F)F)cc1=O)c1cc(-c2c(C)cccc2O)cc(C(F)(F)F)c1F` (stereo partly drawn) has a ring closure, isolated yield (the molecule shown is the open-chain precursor, ether bond, CuI/(1R,2R)-N1,N2-dimethylcyclohexane-1,2-diamine/K2CO3, 1,4-dioxane, 23.3 mM, 100.0 °C) of 71%.

For `CCOC(=O)C[C@@H]1NC(=O)C(n2cc(CCN3CC(F)C3)c(C(F)(F)F)cc2=O)c2cc(ccc2F)Oc2cccc(C(F)(F)F)c2-c2cc(C)c(F)c1c2` (stereo in doubt), the ring closure, isolated yield (from CCOC(=O)C[C@H](NC(=O)C(c1cc(Br)ccc1F)n1cc(CCN2CC(F)C2)c(C(F)(F)F)cc1=O)c1cc(-c2c(O)cccc2C(F)(F)F)cc(C)c1F, ether bond, CuI/K2CO3/N1,N2-dimethylcyclohexane-1,2-diamine, dioxane, 16.7 mM, 100.0 °C, 16.0 h) was 66.7%.

With `CCOC(=O)C[C@H](NC(=O)C(c1cc(Br)cc(Cl)c1F)n1cc(CCN2CC(F)C2)c(C(F)(F)F)cc1=O)c1cc(-c2c(C)cccc2O)cc(C)c1F` (stereo partly drawn) the ring closure, isolated yield (the molecule shown is the open-chain precursor, ether bond, CuI/(1R,2R)-N1,N2-dimethylcyclohexane-1,2-diamine/K2CO3, dioxane, 46.7 mM, 100.0 °C) was 46.1%.
